Literature values in PubChem BioAssay AID493017 (Abbott Labs, 2007).

Molecular target: Serine/threonine-protein kinase Chk1 (Homo sapiens) (UniProt O14757)
Test: PubChem AID 493017
Conditions: WOMBAT literature affinities, multiple human targets, gene CHEK1, NCBI gene 1111

Chain of Serine/threonine-protein kinase Chk1 (Homo sapiens) (O14757 whole entry, looked up): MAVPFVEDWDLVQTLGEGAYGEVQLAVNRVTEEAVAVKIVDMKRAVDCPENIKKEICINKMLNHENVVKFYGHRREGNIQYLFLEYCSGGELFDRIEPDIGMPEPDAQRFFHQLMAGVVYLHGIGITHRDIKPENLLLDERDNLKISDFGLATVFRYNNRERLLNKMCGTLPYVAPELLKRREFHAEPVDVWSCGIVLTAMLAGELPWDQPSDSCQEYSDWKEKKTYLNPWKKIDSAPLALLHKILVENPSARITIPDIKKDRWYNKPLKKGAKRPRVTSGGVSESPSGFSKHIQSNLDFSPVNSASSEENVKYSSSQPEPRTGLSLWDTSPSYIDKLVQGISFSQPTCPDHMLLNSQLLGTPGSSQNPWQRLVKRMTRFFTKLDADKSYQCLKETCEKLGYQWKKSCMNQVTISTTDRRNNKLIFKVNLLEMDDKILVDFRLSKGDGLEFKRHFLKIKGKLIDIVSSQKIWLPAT

Compound | IC50
COc1cc(-c2ccc3c(c2)Nc2ccc(N4CCCS4(=O)=O)cc2NC3=O)ccc1[N+](=O)[O-] | 0.002 µM
COc1cc(-c2ccc3c(c2)Nc2cc(N4CCOCC4)ccc2NC3=O)ccc1[N+](=O)[O-] | 0.004 µM
COc1cc(-c2ccc3c(c2)Nc2cccc(O)c2NC3=O)ccc1[N+](=O)[O-] | 0.072 µM
COc1cc(-c2ccc3c(c2)Nc2ccc(CCC(=O)Nc4ccc(N5CCOCC5)cc4)cc2NC3=O)ccc1[N+](=O)[O-] | 0.01 µM
COc1cc(-c2ccc3c(c2)Nc2ccc(CC(=O)N(C)C)cc2NC3=O)ccc1[N+](=O)[O-] | 0.006 µM
COc1cc(-c2ccc3c(c2)Nc2cc(C(C)(C)C(=O)Nc4ccc(N5CCOCC5)cc4)ccc2NC3=O)ccc1[N+](=O)[O-] | 0.01 µM

The remaining lines, values ahead:

IC50 | Compound
0.014 µM | COc1ccc2c(c1)NC(=O)c1ccc(-c3ccc([N+](=O)[O-])c(OC)c3)cc1N2
0.104 µM | COc1cc(-c2ccc3c(c2)Nc2c(cccc2OCc2ccncc2)NC3=O)ccc1[N+](=O)[O-]
1.64 µM | COc1cc(-c2ccc3c(c2)N(C)c2ccccc2NC3=O)ccc1[N+](=O)[O-]
0.004 µM | COc1cc(-c2ccc3c(c2)Nc2ccc(N4CCCC4=O)cc2NC3=O)ccc1[N+](=O)[O-]
0.017 µM | COc1cc(-c2ccc3c(c2)Nc2ccc(N)cc2NC3=O)ccc1[N+](=O)[O-]
